Results published in patent US20250114460A1, “NOVEL PLK1 DEGRADATION INDUCING COMPOUND” (UPPTHERA, INC., priority 2021, published 2025).
pIC50: −log10 of the molar value.

How the values were obtained:
PLK1 = biological target: T1, PLK1 (Homo sapiens, UniProt P53350); experiment: Luciferase assay for PLK1 in HeLa LgBit (Plk1-HiBit KI) cell line; format: cell-based; settings: 300 nM compound, luminescence after 9 hours
T1 construct: endogenous in cells; host or cells: HeLa LgBit (Plk1-HiBit KI): HeLa stably expressing LgBit, with a CRISPR/Cas9 knock-in of HiBit at the endogenous PLK1 locus
Outline: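 Luminescence, followed in real time after adding compound at 300 nM and Endurazine substrate, is reported relative to DMSO-treated wells. Cells are a HeLa LgBit line with a Plk1-HiBit knock-in, synchronized by 2 mM thymidine for 24 h, released, and cultured 18 h before treatment.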

NCI-H526 cell line = experiment: Cell viability assay for H526 cell (EZ-Cytox); format: cell-based; settings: Homo sapiens, NCI-H526, 120 h; H526 cells, 5 days, 3000 nM to 0.46 nM
Procedure: (1) Culture of NCI-H526 Cell Line
(2) Treatment of Compounds of the Present Invention and Method of Cell Viability Assay
After treating the compound to each well to make the total volume of 200 μL, it was cultured in a CO2 incubator (Thermo Fisher Science, Cat. No. 4111) for 5 days.
The absorbance of the completely cultured sample was measured by setting the wavelength of a plate reader (BMG Labtech, CLARIOstar Plus) to […], and was measured after shaking for 3 minutes in a plate reader before measurement.
In Table 3, Activity represents IC50 value of each Exemplary Compound treatment group to H526 cell line (A: <30 nM, B: <50 nM, C: <100 nM, D: <200 nM, E: <400 nM).

T1 sequence (P53350 whole entry): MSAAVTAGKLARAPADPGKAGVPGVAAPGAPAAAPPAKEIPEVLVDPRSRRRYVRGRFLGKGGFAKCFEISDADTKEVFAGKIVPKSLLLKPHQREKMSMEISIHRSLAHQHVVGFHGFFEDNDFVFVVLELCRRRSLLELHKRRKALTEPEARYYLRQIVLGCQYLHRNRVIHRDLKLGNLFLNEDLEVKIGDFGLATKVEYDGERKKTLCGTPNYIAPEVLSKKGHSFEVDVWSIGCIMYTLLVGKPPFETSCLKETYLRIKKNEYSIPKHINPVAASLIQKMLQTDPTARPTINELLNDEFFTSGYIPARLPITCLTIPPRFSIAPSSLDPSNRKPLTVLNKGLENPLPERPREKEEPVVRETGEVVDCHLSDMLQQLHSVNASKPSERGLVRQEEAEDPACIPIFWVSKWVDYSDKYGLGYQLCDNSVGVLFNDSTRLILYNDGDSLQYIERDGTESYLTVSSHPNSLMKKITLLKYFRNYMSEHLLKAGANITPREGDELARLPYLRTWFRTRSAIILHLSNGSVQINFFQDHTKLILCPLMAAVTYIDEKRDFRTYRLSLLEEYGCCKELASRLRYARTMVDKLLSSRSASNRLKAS

COc1cc(C(=O)NC2CCN(CC3CN(c4ccc5c(c4)C(=O)N(C4CCC(=O)NC4=O)C5=O)C3)CC2)ccc1Nc1ncc2c(n1)N(C1CCCC1)CC(F)(F)C(=O)N2C (stereo not drawn) [Compound 134, 4-((9-cyclopentyl-7,7-difluoro-5-methyl-6-oxo-6,7,8,9-tetrahydro-5H-pyrimido[4,5-b][1,4]diazepin-2-yl)amino)-N-(1-((1-(2-(2,6-dioxopiperidin-3-yl)-1,3-dioxoisoindolin-5-yl)azetidin-3-yl)methyl)piperidin-4-yl)-3-methoxybenzamide]
Activity: ratio of the luminescense value of each Exemplary Compound treatment group to DMSO treatment group (PLK1): +++ (+++: <0.3)
pIC50 (NCI-H526 cell line): > 7.52

COc1cc(C(=O)NC2CCN(CC3CN(c4cccc5c4C(=O)N(C4CCC(=O)NC4=O)C5=O)C3)CC2)ccc1Nc1ncc2c(n1)N(C1CCCC1)CC(F)(F)C(=O)N2C (stereo not drawn) [Compound 135, 4-((9-cyclopentyl-7,7-difluoro-5-methyl-6-oxo-6,7,8,9-tetrahydro-5H-pyrimido[4,5-b][1,4]diazepin-2-yl)amino)-N-(1-((1-(2-(2,6-dioxopiperidin-3-yl)-1,3-dioxoisoindolin-4-yl)azetidin-3-yl)methyl)piperidin-4-yl)-3-methoxybenzamide]
Activity: ratio of the luminescense value of each Exemplary Compound treatment group to DMSO treatment group (PLK1): +++ (+++: <0.3)
pIC50 (NCI-H526 cell line): > 7.30

COc1cc(C(=O)NC2CCCN(C(=O)N3CCN(c4cccc5c4C(=O)N(C4CCC(=O)NC4=O)C5=O)CC3)C2)ccc1Nc1ncc2c(n1)N(C1CCCC1)CC(F)(F)C(=O)N2C (stereo not drawn) [Compound 145, 4-((9-cyclopentyl-7,7-difluoro-5-methyl-6-oxo-6,7,8,9-tetrahydro-5H-pyrimido[4,5-b][1,4]diazepin-2-yl)amino)-N-(1-(4-(2-(2,6-dioxopiperidin-3-yl)-1,3-dioxoisoindolin-4-yl)piperazine-1-carbonyl)piperidin-3-yl)-3-methoxybenzamide]
Activity: ratio of the luminescense value of each Exemplary Compound treatment group to DMSO treatment group (PLK1): +++ (+++: <0.3)
pIC50 (NCI-H526 cell line): > 7.30

COc1cc(C(=O)N[C@@H]2CCCN(C(=O)CN3CCN(c4cccc5c4C(=O)N(C4CCC(=O)NC4=O)C5=O)CC3)C2)ccc1Nc1ncc2c(n1)N(C1CCCC1)CC(F)(F)C(=O)N2C (stereo partly drawn) [Compound 146, 4-((9-cyclopentyl-7,7-difluoro-5-methyl-6-oxo-6,7,8,9-tetrahydro-5H-pyrimido[4,5-b][1,4]diazepin-2-yl)amino)-N-((3R)-1-(2-(4-(2-(2,6-dioxopiperidin-3-yl)-1,3-dioxoisoindolin-4-yl)piperazin-1-yl)acetyl)piperidin-3-yl)-3-methoxybenzamide]
Activity: ratio of the luminescense value of each Exemplary Compound treatment group to DMSO treatment group (PLK1): +++ (+++: <0.3)
pIC50 (NCI-H526 cell line): > 7.30

COc1cc(C(=O)N[C@H]2CCCN(C(=O)CN3CCN(c4cccc5c4C(=O)N(C4CCC(=O)NC4=O)C5=O)CC3)C2)ccc1Nc1ncc2c(n1)N(C1CCCC1)CC(F)(F)C(=O)N2C (stereo partly drawn) [Compound 147, 4-((9-cyclopentyl-7,7-difluoro-5-methyl-6-oxo-6,7,8,9-tetrahydro-5H-pyrimido[4,5-b][1,4]diazepin-2-yl)amino)-N-((3S)-1-(2-(4-(2-(2,6-dioxopiperidin-3-yl)-1,3-dioxoisoindolin-4-yl)piperazin-1-yl)acetyl)piperidin-3-yl)-3-methoxybenzamide]
Activity: ratio of the luminescense value of each Exemplary Compound treatment group to DMSO treatment group (PLK1): +++ (+++: <0.3)
pIC50 (NCI-H526 cell line): > 7.30

COc1cc(C(=O)N2CCC(N3CCN(CCOCCCNc4cccc5c4C(=O)N(C4CCC(=O)NC4=O)C5=O)CC3)CC2)c(F)cc1Nc1ncc2c(n1)N(C1CCCC1)CC(F)(F)C(=O)N2C (stereo not drawn) [Compound 190, 4-((3-(2-(4-(1-(4-((9-cyclopentyl-7,7-difluoro-5-methyl-6-oxo-6,7,8,9-tetrahydro-5H-pyrimido[4,5-b][1,4]diazepin-2-yl)amino)-2-fluoro-5-methoxybenzoyl)piperidin-4-yl)piperazin-1-yl)ethoxy)propyl)amino)-2-(2,6-dioxopiperidin-3-yl)isoindoline-1,3-dione]
Activity: ratio of the luminescense value of each Exemplary Compound treatment group to DMSO treatment group (PLK1): ++ (++<0.6)
pIC50 (NCI-H526 cell line): > 7.52
